SMILES strings stand for the structures. Structures can show the parent of a compound that is named as a salt.

Sequence of butyrylcholinesterase (P06276 29-602): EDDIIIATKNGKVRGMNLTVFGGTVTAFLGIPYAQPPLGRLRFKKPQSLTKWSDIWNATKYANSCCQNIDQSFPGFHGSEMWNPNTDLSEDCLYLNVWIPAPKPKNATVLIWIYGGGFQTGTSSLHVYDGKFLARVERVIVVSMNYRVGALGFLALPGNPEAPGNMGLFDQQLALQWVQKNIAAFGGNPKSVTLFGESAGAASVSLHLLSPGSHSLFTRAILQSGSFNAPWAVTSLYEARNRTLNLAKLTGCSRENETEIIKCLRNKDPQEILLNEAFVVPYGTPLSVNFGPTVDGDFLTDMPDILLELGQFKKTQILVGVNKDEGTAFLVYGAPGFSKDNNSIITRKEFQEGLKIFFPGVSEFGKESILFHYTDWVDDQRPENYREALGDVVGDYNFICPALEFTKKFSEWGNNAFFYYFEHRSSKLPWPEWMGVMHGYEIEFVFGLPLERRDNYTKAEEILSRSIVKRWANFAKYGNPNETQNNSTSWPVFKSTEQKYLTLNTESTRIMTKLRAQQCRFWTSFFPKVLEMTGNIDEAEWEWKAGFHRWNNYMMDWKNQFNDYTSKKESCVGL

One experiment addresses butyrylcholinesterase (Homo sapiens, UniProt P06276). As to the kind of experiment: biochemical.
Conditions: not given
Compound `COc1ccc2c3c1O[C@H]1C[C@@H](O)C=C[C@@]31CCN(Cc1ccc(Br)cc1)C2` [Example 43, (4aS,6R,8aS)-11-(4-brombenzyl)-4a,5,9,10,11,12-hexahydro-3-methoxy-6H-[1]benzofuro[3a,3,2-ef][2]benzazepin-6-ol] had an IC50 of 0.0006 µM. `COc1ccc2c3c1O[C@@H]1C[C@@H](O)C=C[C@]31CC[N+](C)=C2` [Example 56, (4aR,6R,8aR)-6-hydroxy-3-methoxy-11-methyl-4a,5,9,10-tetrahydro-6H-benzofuro[3a,3,2-ef][2]benzazepineium bromide]: the IC50 was greater than 100 µM.

The compound `C=C(C)CN1CC[C@@]23C=C[C@@H](O)C[C@@H]2Oc2c(OC)ccc(c23)C1` [Example 17, (4aS,6S,SaS)-4a,5,9,10,11,12-hexahydro-3-methoxy-11-(2-methyl-prop-2-enyl)-6H-[1]benzofuro[3a,3,2-ef][2]benzazepin-6-ol] came in with an IC50 greater than 100 µM. Consider `COc1ccc2c3c1O[C@@H]1C[C@H](O)C=C[C@]31CC[N+](C)=C2` [Example 55, (4aR,6S,8aR)-6-hydroxy-3-methoxy-11-methyl-4a,5,9,10-tetrnhydro-6H-benzofuro[3a,3,2-eq][2]benzazepinium bromide], for which the IC50 is greater than 100 µM. Regarding `C=C(C)CN1CC[C@@]23C=C[C@H](O)C[C@@H]2Oc2c(OC)ccc(c23)C1` [Example 46, (4aS,6R,8aS)-4a,5,9,10,11,12-hexahydro-3-methoxy-11-(2-methyl-prop-2-enyl)-6H-[1]benzofuro[3a,3,2-ef][2]benzazepin-6-ol, hydrochloride], the IC50 amounted to 0.34 µM.

The same experiment, now with this note: read-out: Butyrylcholinesterase IC-50.
Take `COc1ccc2c3c1O[C@H]1C[C@@H](O)C=C[C@@]31CCN(CCCN(C)C)C2` [Example 52, (4aS,6R,8aS)-11-((3-dimethylamino)propyl)-3-methoxy-5,6,9,10,11,12-hexahydro-4aH-[1]benzofuro[3a,3,2-ef][2]benzazepin-6-ol]: the IC50 was found to be 2.1 µM. As to `COc1ccc2c3c1O[C@H]1C[C@H](O)C=C[C@@]31CCN(C(=O)c1ccccc1)C2` [Example 19, (4aS,6S,8aS)-4a,5,9,10,11,12-hexahydro-3-methoxy-11-benzoyl-6H-[1]benzafuro[3a,3,2-ef][2]benzazepin-6-ol], the IC50 was greater than 100 µM.

On to `CCOC(=O)CN1CC[C@@]23C=C[C@H](O)C[C@@H]2Oc2c(OC)ccc(c23)C1` [Example 44, Ethyl-2-((4aS,6R,8aS)-6-hydroxy-3-methoxy-5,6,9,10-tetrahydro-4aH-[1]benzofuro[3a,3,2-ef][2]benzazepine-11(12H)-yl)acetate], for which the IC50 was found to be 42 µM. Still for that read-out and setting: next, `COc1ccc2c3c1O[C@H]1C[C@@H](O)C=C[C@@]31CCN(C(=O)CN1CCOCC1)C2` [Example 48, 1-[(4aS,6R,8aS)-6-hydroxy-3-methoxy-5,6,9,10-tetrahydro-4aH-[1]benzofuro[3a,3,2-ef][2]benzazepine-11(12H)-yl]-2-(4-morpholinyl) ethan-1-one]: 3.8 µM.

`CCN(CC)CC(=O)N1CC[C@@]23C=C[C@H](O)C[C@@H]2Oc2c(OC)ccc(c23)C1` [Example 49, 1-((4aS,6R,8aS)-6-hydroxy-3-methoxy-5,6,9,10-tetrahydro-4aH-[1]benzofuro[3a,3,2-ef][2]benzazepine-11(12H)-yl]-2-(diethylamino) ethan-1-one]: the IC50 was 40 µM. On to `COc1ccc2c3c1O[C@H]1C[C@@H](O)C=C[C@@]31CCN(C(=O)c1ccccc1)C2` [Example 33, (4aS,6R,8aS)-4a,5,9,10,11,12-hexahydro-3-methoxy-11-benzoyl-6H-[1]benzofuro[3a,3,2-ef][2]benzazepin-6-ol], for which the IC50 is greater than 100 µM.

On to `COc1cc(Br)c2c3c1O[C@@H]1C[C@H](O)C=C[C@]31CCN(C(=O)CN1CCN(C)CC1)C2` [Example 7, 1-[(4aR,6S,8aR)-1-bromo-6-hydroxy-3-methoxy-5,6,9,10-tetrahydro-4aH-[1]benzofuro[3a,3,2-ef][2]benzazepine-11(12H)-yl]-2-(4-methylpiperazinyl)ethan-1-one], for which the IC50 was greater than 100 µM.

(Values after patent US20070105837A1, “Novel derivatives of 4a,5,9,10,11,12-hexahydrobenzofuro[3a,3,2][2]-benzazepine, method for the production thereof and use thereof in the production of medicaments” (priority 2003, published 2007).)
